Here are results for 33 molecules from a melting point compilation (Tetko et al.; mined from patent text by program, amines drawn as free bases though some values may be those of a salt).

In general, melting point refers to the temperature, or range, at which the solid turns liquid. With `Clc1ccc(-c2cnccn2)cc1Cl`, the melting point was in the range of 118 to 119 °C.

Molecule `Cc1ccnc(C(=O)c2[nH]c3ccc(Cl)cc3c2CC(=O)NCCO)c1` gave a melting point of 196 °C.

In turn, `COc1cc2c(cc1OC)CN(c1nc(N)c3cc(OC)c(OC)c(OC)c3n1)CC2` gave a melting point of 204 °C.

`COc1ccc(S(=O)(=O)c2cc3c(cc2OC)OC(C)(C)[C@@H](O)[C@@H]3N2CCCC2=O)cc1` (relative stereo) yielded a melting point of 286 to 287 °C.

Regarding `COc1ccc(Nc2ccnc3nc(C)c(OC(=O)COC(C)=O)cc23)cc1`, the melting point fell in the range of 213 to 216 °C.

As for `CCCC1OCc2c(O)c(C)nc(Cl)c21` (stereo not drawn), the melting point is 242 °C.

The molecule `CC(C)c1onc(-c2c(Cl)cccc2Cl)c1COc1ccc(NCc2ccc(C(=O)O)cc2)c(C(F)(F)F)n1` registered a melting point of 259 to 260 °C.

In the case of `CCOC(=O)n1c(C(=O)c2cncnc2)c(NC(C)=O)c2ccc(Cl)cc21`, the melting point fell in the range of 214 to 215 °C.

Molecule `Cc1c(Br)csc1C(=O)O` registered a melting point of 188 to 189 °C.

The molecule `COCCS(=O)(=O)c1ccc(F)c(C#Cc2cc(Cl)ccc2OCC(=O)O)c1` had a melting point of 125 to 128 °C.

`CCCCCCCCCCCCCCCCCCOc1cc(OCCCOc2ccc(S(C)=O)cc2)cc(C(=O)OC)c1` (stereo not drawn) registered a melting point of 86 to 88 °C.

For `CN(C)CCCOc1ccccc1C=NCC(N)=O`, the melting point was in the range of 71 to 73 °C.

In turn, `COc1ccc2nc(Oc3c(Cl)cc(NS(=O)(=O)c4ccc(C(F)(F)F)cc4Cl)cc3Cl)sc2c1` gave a melting point of 164 to 165 °C.

Molecule `C[C@H](NS(=O)(=O)c1ccc2c(c1)Sc1ccccc1O2)C(=O)O` gave a melting point of 75 to 85 °C.

The molecule `c1cnc2scc(Nc3ccncc3)c2c1` gave a melting point of 200 to 204 °C.

As to `Cc1nc2ccc(OC(F)(F)F)cc2[nH]1`, the melting point lay within 135 to 137 °C.

Consider `CNC(=O)C(NC(=O)c1ccc(F)cc1C(F)(F)F)C(C[N+](=O)[O-])c1ccccc1` (stereo not drawn), for which the melting point came to 223 °C.

For the molecule `COc1ccc2nc(O)c(O)nc2c1`, the melting point is more than 300 °C.

On to `COc1cc(N)c(Cl)cc1C(=O)N[C@@H]1CCN(CCCOc2ccc(F)cc2)C[C@H]1F` (relative stereo), for which the melting point was 125 °C.

The molecule `CC(C)(C)OC(=O)N1CCN2C(=O)N(c3cc(Cl)cc(Cl)c3)C(=O)C2(Cc2ccc(Br)cc2)C1` (stereo not drawn) yielded a melting point of 79.5 °C.

`O=[N+]([O-])c1ccc(-c2ccc([N+](=O)[O-])cc2C(F)(F)F)c(C(F)(F)F)c1` registered a melting point of 140 °C.

`CCCCCCCCCCNC(=O)c1cc(C(=O)NCCCCCCCCCC)cc(N(CCCC(=O)O)CCCC(=O)O)c1` gave a melting point of 154 to 156 °C.

In the case of `CCOC(=O)C(C)=NNc1ccc(Br)cc1`, the melting point fell in the range of 153 to 154 °C.

Consider `COc1ccc(CCNC(=O)CCCCC(=O)NCCc2ccc(OC)c(OC)c2CCc2cccc(OC)c2)cc1`, for which the melting point lay within 153 to 155 °C.

In turn, `CSC(Oc1cc(Cl)cc(Cl)c1)C(=O)NC(C)(C)C#CCCCC#N` (stereo not drawn) returned a melting point of 113 to 114 °C.

As to `COc1cc(-c2nc3ccc(OC(F)(F)F)cc3[nH]2)ccc1O`, the melting point fell in the range of 188 to 190 °C.

Take `Cc1ccccc1C(=O)Nc1nc(C(Cl)(Cl)Cl)ns1`: the melting point is 170 °C.

Turning to `CCNC(=O)c1cc(NCn2nnc3ccccc32)ccc1[Si](C)(C)C`, the melting point was 207 to 208 °C.

As for `CCCCCCCCCCCCCCCCCCNC(=O)OC[C@@H]1OCCC[C@H]1O` (relative stereo), the melting point lay in the range of 55 to 56 °C.

The molecule `Cn1nc(-c2cnc3[nH]cc(C(=O)NC4CCS(=O)(=O)C4)c3n2)c2ccc(Cl)cc21` (stereo not drawn) registered a melting point of 383 to 385 °C.

Molecule `Cn1cc(C(=O)c2ccncc2)cc1C(=O)c1ccc(Cl)cc1` had a melting point of 174 to 175 °C.

On to `O=C(Nc1cccc(F)c1)C12CC3CC(CC(C3)C1)C2`, for which the melting point lay within 174 to 177 °C.

Molecule `Nc1nc2ccccc2c2c1nc(-c1ccccc1)n2CCCCNC(=S)Nc1cccnc1` showed a melting point of 118 to 120 °C.
